Reference: article PMC12889028, “Discovery and biological evaluation of novel N-aryl-N′-methylbenzodrazides against Schistosoma japonicum in vitro and in vivo” (Microbiology Spectrum, 2025)
Read-outs that look alike come from different tables or passages of the source.

Assays:
[1] = test system: adult worms of S. japonicum (Chinese strain); assay: microbe, parasite or virus in culture; details: for mortality at 100 µM / LC50: Schistosoma japonicum; for LC50: read-out: LC50 (72 h)
Method: S. japonicum cercariae (Chinese strain) were acquired from infected Oncomelania hupensis snails (Wuxi Insect Vector Biology Co., Ltd., China) ([28]). ICR mice (6–8 weeks, 22–25 g; Hunan SJA Laboratory Animal Co., Ltd., China) were percutaneously infected via abdominal exposure to 60 ± 5 cercariae. Adult schistosomes were perfused from the hepatic portal system at 35 dpi using a modified Duvall and DeWitt method ([29]). Animals were housed under controlled conditions (22°C ± 1°C, 12 h light/dark cycle) with ad libitum access to feed and water.
Adult S. japonicum worms isolated from ICR mice were maintained in sterile culture medium (2.0 mL) comprising 77% RPMI 1640 (Lanzhou Bailing Biotech Co., Ltd.; pH 7.5, HEPES-buffered), 20% heat-inactivated fetal bovine serum (Lanzhou Minhai Bio-Engineering Co., Ltd.), and 3% penicillin-streptomycin (100×; 10,000 U/mL penicillin, 10,000 μg/mL streptomycin; New Cell & Molecular Biotech Co., Ltd., China). Incubation was performed at 37°C under 5% CO2. Test compounds were dissolved in DMSO as 0.1 M stock solutions; 2.0 μL aliquots were added to worm-containing media (final concentration: 100 μM in 0.1% DMSO). Negative controls received equivalent volumes of vehicle (0.1% DMSO in RPMI 1640). Parasite viability (motor activity, tegumental integrity, survival) was assessed every 12 h for 72 h using an Olympus CKX53 inverted microscope (n ≥ 3 independent replicates).

[2] = test system: S. japonicum (Chinese strain); assay: In vivo antischistosomal assay in infected mice (worm burden, worm morphology, liver eggs); design: species or system Schistosoma japonicum in ICR mice; details: for Worm burden reduction (WBR), Adult / Number of worms, Adult / Morphology of worms after treatment in vivo, juvenile stage / Worm burden reduction (WBR), Juvenile / Number of worms, Juvenile / Morphology of worms after treatment in vivo, adult stage: mice, oral 100 mg/kg/day for 5 days; for Worm burden reduction (WBR), Adult: adult stage (from 35 dpi); for Worm burden reduction (WBR), Adult / Worm burden reduction (WBR), Juvenile: 100 mg/kg/day; for Number of worms, Adult: adult stage (treatment from 35 dpi, sacrifice 45 dpi); for Worm burden reduction (WBR), Juvenile: juvenile stage (from 9 dpi); for Number of worms, Juvenile: juvenile stage (treatment from 9 dpi, sacrifice 45 dpi); for Hepatic egg burden, adult-stage treatment / Hepatic egg burden, juvenile-stage treatment: mouse livers at 45 dpi; for Hepatic egg burden, adult-stage treatment: treatment in adult stage; for Hepatic egg burden, juvenile-stage treatment: treatment in juvenile stage
Method: (§1) Lead compounds 5, 18, and 41 (100 mg/kg) were orally administered once daily for 5 consecutive days to infected mice (n = 6/group) during two therapeutic windows: (i) Juvenile stage: treatment initiated at 9 dpi, terminal sacrifice at 45 dpi; (ii) adult stage: treatment initiated at 35 dpi, terminal sacrifice at 45 dpi. Positive controls received praziquantel (PZQ, 100 mg/kg/day ×5 days); negative controls received PBS (0.3 mL). Mice treated at 9 dpi were euthanized 36 days post-treatment; those treated at 35 dpi were euthanized 10 days post-treatment. Adult worms were perfused from the hepatic portal system and mesenteric veins. Parasite burden was quantified by worm enumeration, and worm burden reduction (WBR) was calculated:
WBR (%)=[1−Mean worm count (treated) / Mean worm count (control)]×100% .

[3] = test system: adult S. japonicum worms; assay: SEM examination in vitro of tegumental damage; format: cell-based, Schistosoma japonicum; details: 100 μM
Method: Adult S. japonicum worms (male/female) underwent standardized fixation after in vitro exposure to compounds 5, 18, and 41 over a period of 12 h. First, the samples were immersed in 2.5% glutaraldehyde (prepared with 40 mL 0.2 M phosphate-buffered saline [PBS, pH 7.4], 5 mL 50% glutaraldehyde stock, and 55 mL ultrapure water) at 4°C for 24 h. After triple washes in PBS for 5 min each, worms were rinsed with deionized water for 10 min. The next dehydration sequence included ethanol gradient (50%, 70%, 80%, 90%, 100%; 5 min/step) and tert-butanol gradient (50%, 70%, 90%, 100%; 10 min/step). The worms were freeze-dried, directly sputter-covered with a thin gold layer using a Sputter Coater, and imaged using a scanning electron microscope (Quanta 450).

[4] = test system: MCF-7 (human breast cancer) cells; assay: Cytotoxicity MTT assay, MCF-7; format: cell-based
Method: (§2) The cytotoxicity of compounds 5, 18, and 41 against human liver cancer (HepG2) and human breast cancer (MCF-7) cell lines in vitro was evaluated using the MTT assay, with cisplatin as a positive control. Cells were plated into 96-well plates and incubated in 100 μL of Dulbecco’s modified Eagle’s medium for 24 h. Test compounds at specified final concentrations were then added to the culture medium. After 48 h incubation, MTT dye (10 μL, 0.5 mg/mL) was added, and cells were incubated for an additional 4 h at 37°C in 5% CO2. Formazan crystals were dissolved in 100 μL DMSO per well, and absorbance at 570 nm (OD570) was measured using an ELx800 microplate reader (Bio-Tek, Winooski, VT, USA) with background subtraction. Cytotoxicity was expressed as IC50 (the concentration causing 50% reduction in cell growth compared to untreated controls). Experiments were performed in triplicate, with results presented as mean ± standard deviation.

[5] = test system: HepG2 (human liver cancer) cells; assay: Cytotoxicity MTT assay, HepG2; format: cell-based
Method: as §2

[6] = Serum hepatic/renal function profiling of infected, treated mice; format: in vivo, ICR mice; details: for Serum GGT: normal range 1–15 U/L; for Serum TBIL: normal range 1.7–15.4 µM; for Serum BUN: normal range 4.9–10.4 mM; for Serum ALT: normal range 28–132 U/L; for Serum AST: normal range 59–247 U/L; for Nephrotoxicity: infected treated mice, judged from BUN
Method: Following maturation, Schistosoma parasites initiate oviposition, with a proportion of eggs migrating via the circulatory system to hepatic tissues. This ectopic deposition induces granuloma formation that subsequently elicits a cascade of immune-mediated pathologies, ultimately compromising hepatic and renal functions in murine models. To evaluate therapeutic efficacy, retro-orbital blood sampling was performed for comprehensive hepatic function profiling, enabling systematic assessment of pharmacological impacts on schistosomiasis-associated organ damage.
as §1, with “calculated: […]” for “calculated:”

[7] = Acute oral toxicity; format: in vivo; details: ICR, mouse, in vivo, po, single oral dose, healthy ICR mice
Method: (§3) ICR mice (n = 10/group), aged 6 to 8 weeks, received a single oral dose of compounds 5, 18, and 41 (732–2,234 mg/kg). LD50 values were determined by Probit analysis (SPSS 26.0).

[8] = test system: healthy mice; assay: Acute oral toxicity; format: in vivo; details: single oral dose, healthy ICR mice
Method: as §3

[9] = infected mice treated in adult stage
[10] = infected mice treated in juvenile stage
[11] = 24 h, read-out: Mortality (%) 24 h, 100 μM, 24 h, adult worms in vitro
[12] = 36 h, read-out: Mortality (%) 36 h, 100 μM, 36 h, adult worms in vitro
[13] = 48 h, read-out: Mortality (%) 48 h, 100 μM, 48 h, adult worms in vitro
[14] = 72 h, read-out: Mortality (%) 72 h, 100 μM, 72 h, adult worms in vitro
[15] = Homo sapiens, MCF7, 48 h incubation
[16] = Homo sapiens, HepG2, 48 h incubation

## O=C(C1CCCCC1)N1CC(=O)N2CCc3ccccc3C2C1 (centres unmarked) [PZQ, praziquantel, reference compound]
[1]; 24 h, read-out: Mortality (%) 24 h
  mortality at 100 µM: 100%
[1]; 36 h, read-out: Mortality (%) 36 h
  mortality at 100 µM: 100%
[1]; 48 h, read-out: Mortality (%) 48 h
  mortality at 100 µM: 100%
[1]; 72 h
  LC50: 43.8 ± 8.26 µM
[1]; 72 h, read-out: Mortality (%) 72 h
  mortality at 100 µM: 100%
[2]
  Worm burden reduction (WBR), Adult: 100%
  Number of worms, Adult: 0
  Morphology of worms after treatment in vivo, juvenile stage: no significant tegumental alterations compared to negative controls
  Worm burden reduction (WBR), Juvenile: 0%
  Number of worms, Juvenile: 39
  Hepatic egg burden, adult-stage treatment: significantly reduced both ovum dimensions and egg counts
  Hepatic egg burden, juvenile-stage treatment: without statistically significant ovicidal efficacy
[3]; female worms
  Tegumental damage (SEM), female adult worms: multifocal vesiculation, ulcerative lesions penetrating the basal lamina, and progressive tegumental corrugation
[3]; male worms
  Tegumental damage (SEM), male adult worms: extensive tegumental desquamation, complete muscular layer exposure with striation disruption, and ventral sucker collapse

## N.N.[Cl][Pt][Cl] [Cisplatin, reference compound]
[4]; 48 h incubation
  IC50: 1.17 ± 0.13 µM
[5]; 48 h incubation
  IC50: 3.51 ± 0.14 µM

## CN(NC(=O)c1ccc(Br)cc1)c1ccc(Cl)c(Cl)c1 [Compound 18]
[6]; [9]
  Serum GGT: 6.73 ± 9.70 U/L
  Serum TBIL: 18.73 ± 6.05 µM
  Serum BUN: 8.68 ± 1.22 mM
  Serum ALT: 322.33 ± 239.58 U/L
  Serum AST: 783.67 ± 457.47 U/L
[6]; [10]
  Serum GGT: 0.93 ± 0.81 U/L
  Serum TBIL: 2.98 ± 1.03 µM
  Serum BUN: 12.53 ± 1.31 mM
  Serum ALT: 546.00 ± 82.15 U/L
  Serum AST: 673.67 ± 153.58 U/L
[6]
  Nephrotoxicity: transient nephrotoxicity
[1]; 100 μM, 72 h, adult worms in vitro
  Mortality (%) 72 h: 100%
[1]; [11]
  mortality at 100 µM: 10%
[1]; [12]
  mortality at 100 µM: 50%
[1]; [13]
  mortality at 100 µM: 80%
[1]; 72 h
  LC50: 83 ± 1.9 µM
[1]; [14]
  mortality at 100 µM: > 90%
[4]; [15]
  IC50: 40.9 ± 2.82 µM
[2]
  Morphology of worms after treatment in vivo, adult stage: making the males thicker and shorter
  Worm burden reduction (WBR), Adult: 20%
  Number of worms, Adult: 35
  Morphology of worms after treatment in vivo, juvenile stage: marked stunting of male schistosomes
  Worm burden reduction (WBR), Juvenile: 40%
  Number of worms, Juvenile: 24
  Hepatic egg burden, adult-stage treatment: comparable egg burdens to untreated controls
  Hepatic egg burden, juvenile-stage treatment: significantly reduced egg burdens
[5]; [16]
  IC50: 22.6 ± 1.48 µM
[7]
  LD50: 1400 mg/kg
[8]
  LD50: >2,000 mg/kg
  LogLD50: >3.30

## CN(NC(=O)c1ccc(Br)cc1)c1ccc(C(F)(F)F)c(Cl)c1 [Compound 41]
[6]; [9]
  Serum GGT: 0.87 ± 0.32 U/L
  Serum TBIL: 7.95 ± 2.11 µM
  Serum BUN: 7.79 ± 2.11 mM
  Serum ALT: 274.67 ± 186.53 U/L
  Serum AST: 453.33 ± 217.99 U/L
[6]; [10]
  Serum GGT: 1.60 ± 0.17 U/L
  Serum TBIL: 3.61 ± 1.39 µM
  Serum BUN: 6.18 ± 4.85 mM
  Serum ALT: 364.00 ± 329.78 U/L
  Serum AST: 557.67 ± 630.32 U/L
[6]
  Nephrotoxicity: without observable nephrotoxicity
[1]; [11]
  mortality at 100 µM: 35%
[1]; [12]
  mortality at 100 µM: 70%
[1]; [13]
  mortality at 100 µM: 80%
[1]; 72 h
  LC50: 61.4 ± 1.8 µM
[1]; [14]
  mortality at 100 µM: 100%
[4]; [15]
  IC50: 39.2 ± 3.53 µM
[2]
  Morphology of worms after treatment in vivo, adult stage: making the males thicker and shorter
  Worm burden reduction (WBR), Adult: 30%
  Number of worms, Adult: 31
  Morphology of worms after treatment in vivo, juvenile stage: marked stunting of male schistosomes
  Worm burden reduction (WBR), Juvenile: 30%
  Number of worms, Juvenile: 28
  Hepatic egg burden, adult-stage treatment: comparable egg burdens to untreated controls
[5]; [16]
  IC50: 20.7 ± 1.36 µM
[7]
  LD50: 1400 mg/kg
[8]
  LD50: >2,000 mg/kg
  LogLD50: >3.30
